Assay results: PubChem BioAssay (NCI)
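These data come from cells grown in 96-well plates and exposed to compound for 48 hours at five concentrations. GI50: concentration for 50% inhibition of growth. TGI: total growth inhibition.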

Assays:
Test in all cases: inhibition of tumour cell growth, NCI panel, 48 h
[1] = test system: 786-0 renal
[2] = test system: HOP-92 NSCLC
[3] = test system: HT29 colon
[4] = test system: KM12 colon
[5] = test system: OVCAR-8 ovarian
[6] = test system: RPMI-8226 leukemia
[7] = test system: SK-MEL-5 melanoma
[8] = test system: SNB-75 CNS
[9] = test system: SR leukemia
[10] = test system: TK-10 renal

O=C1CCCC(=O)C1=C(O)CCCCCCCCCCc1ccccc1
TGI [1]: > 100 µM | TGI [2]: 39.6 µM | TGI [3]: 79 µM | TGI [4]: > 100 µM | TGI [5]: > 100 µM | TGI [6]: > 100 µM | TGI [7]: 49.5 µM | TGI [8]: 95.4 µM | TGI [9]: 71.9 µM | TGI [10]: > 100 µM

CCOC(=O)N[C@H]1CCc2cc(O)c(OC)c(OC)c2-c2ccc(SC)c(=O)cc21
TGI [1]: > 59.9 µM | TGI [2]: 0.0786 µM | TGI [3]: 7.22 µM | TGI [4]: 0.413 µM | TGI [5]: > 100 µM | TGI [6]: > 72.6 µM | TGI [7]: 0.0145 µM | TGI [9]: > 100 µM | TGI [10]: > 100 µM

Cn1cnc([N+](=O)[O-])c1SC1=NCCS1
TGI [1]: > 100 µM | TGI [2]: > 100 µM | TGI [3]: > 100 µM | TGI [4]: > 100 µM | TGI [5]: > 100 µM | TGI [6]: > 100 µM | TGI [7]: > 100 µM | TGI [8]: > 100 µM | TGI [9]: > 100 µM | TGI [10]: > 100 µM

O=C1/C(=C/c2ccc([N+](=O)[O-])o2)Oc2ccccc21
GI50 [1]: 2.06 µM | TGI [1]: 4.12 µM | GI50 [2]: 0.912 µM | TGI [2]: 2.62 µM | GI50 [3]: 0.613 µM | TGI [3]: 2.84 µM | GI50 [4]: 1.77 µM | TGI [4]: 3.48 µM | GI50 [5]: 1.35 µM | TGI [5]: 3.82 µM | GI50 [6]: 1.02 µM | TGI [6]: 3.58 µM | GI50 [7]: 1.69 µM | TGI [7]: 3.29 µM | GI50 [8]: 1.8 µM | TGI [8]: 5.77 µM | GI50 [9]: 0.219 µM | TGI [9]: 1.13 µM | GI50 [10]: 1.59 µM | TGI [10]: 3.02 µM

O=C(N/N=c1/ccoc2cccnc12)N1CCN(c2ncccn2)CC1
GI50 [1]: 0.291 µM | TGI [1]: 2.59 µM | GI50 [2]: 0.017 µM | TGI [2]: 2.68 µM | GI50 [3]: < 0.01 µM | TGI [3]: 7.39 µM | GI50 [4]: 0.371 µM | TGI [4]: 10.2 µM | GI50 [5]: 0.031 µM | TGI [5]: 6.67 µM | GI50 [6]: < 0.01 µM | TGI [6]: 2.04 µM | GI50 [7]: 0.383 µM | TGI [7]: 2.97 µM | GI50 [8]: 1.63 µM | TGI [8]: 9.33 µM | GI50 [9]: 0.153 µM | TGI [9]: 15.6 µM | GI50 [10]: 0.992 µM | TGI [10]: 8.08 µM

CCN(CC)CCC(=O)N1CCc2c([nH]c3ccccc23)C1c1cccnc1 (stereo not drawn)
TGI [1]: > 100 µM | TGI [2]: > 100 µM | TGI [3]: > 100 µM | TGI [4]: > 100 µM | TGI [5]: > 100 µM | TGI [6]: > 100 µM | TGI [7]: > 100 µM | TGI [8]: > 100 µM | TGI [9]: > 100 µM | TGI [10]: > 100 µM

Oc1ccc2c3c1OC1C(=NN=C4CCC5(O)C6Cc7ccc(O)c8c7C5(CCN6CC5CC5)C4O8)CCC4(O)C(C2)N(CC2CC2)CCC314 (stereo not drawn)
TGI [1]: 66.2 µM | TGI [2]: 53.4 µM | TGI [3]: 32.8 µM | TGI [4]: 40.2 µM | TGI [5]: 84 µM | TGI [6]: 88.7 µM | TGI [7]: 34.8 µM | TGI [8]: > 71.8 µM | TGI [9]: 80.4 µM | TGI [10]: > 70.2 µM

C=C(C)[C@@H]1CC[C@]2(C(=O)O)CC[C@]3(C)[C@H](CC[C@@H]4[C@@]5(C)C[C@@H](CC#Cc6ccc(Br)cc6)C(=O)C(C)(C)[C@@H]5CC[C@]43C)[C@@H]12
GI50 [1]: 5.27 µM | TGI [1]: 22.2 µM | GI50 [2]: 17 µM | TGI [2]: 36.4 µM | GI50 [3]: 4.83 µM | TGI [3]: > 100 µM | GI50 [4]: 4.54 µM | TGI [4]: > 100 µM | GI50 [5]: 5.84 µM | TGI [5]: > 100 µM | GI50 [6]: 9.08 µM | TGI [6]: > 100 µM | GI50 [7]: 34.2 µM | TGI [7]: > 100 µM | GI50 [8]: 13.5 µM | TGI [8]: 34.6 µM | GI50 [9]: 9.33 µM | TGI [9]: > 100 µM | GI50 [10]: 23.7 µM | TGI [10]: > 100 µM

CNc1cccnc1/C=N/NC(N)=S
TGI [1]: > 10 µM | TGI [2]: > 10 µM | TGI [3]: > 10 µM | TGI [4]: > 10 µM | TGI [5]: > 10 µM | TGI [6]: > 10 µM | TGI [7]: > 10 µM | TGI [8]: > 7.14 µM | TGI [9]: > 10 µM | TGI [10]: > 10 µM

Cn1cnc([N+](=O)[O-])c1Sc1nc2cccnc2s1
TGI [1]: 28.1 µM | TGI [2]: 33.9 µM | TGI [3]: 63.7 µM | TGI [4]: > 100 µM | TGI [5]: 90.1 µM | TGI [6]: 60.4 µM | TGI [7]: 35.7 µM | TGI [8]: 65.8 µM | TGI [9]: 37.1 µM | TGI [10]: 30.3 µM

C#C[C@@]1(O)CCCC2=CC(=O)C[C@]21C
TGI [1]: > 100 µM | TGI [2]: > 100 µM | TGI [3]: > 100 µM | TGI [4]: > 100 µM | TGI [5]: > 100 µM | TGI [6]: > 100 µM | TGI [7]: > 100 µM | TGI [9]: > 100 µM | TGI [10]: > 100 µM

COc1cc(C(=O)/C=C/c2c(-c3ccc(F)cc3)nc3ncccn23)cc(OC)c1OC
GI50 [1]: 2.76 µM | TGI [1]: 9.6 µM | GI50 [2]: 1.77 µM | TGI [2]: 92.9 µM | GI50 [3]: 2.52 µM | TGI [3]: 6.25 µM | GI50 [4]: 1.69 µM | TGI [4]: 4.37 µM | GI50 [5]: 2.69 µM | TGI [5]: > 100 µM | GI50 [6]: 2.56 µM | TGI [6]: > 100 µM | GI50 [8]: 2.39 µM | TGI [8]: 9.37 µM | GI50 [9]: 2.28 µM | TGI [9]: > 100 µM | GI50 [10]: 3.25 µM | TGI [10]: 22.6 µM

COc1ccc(NC(=O)COC(=O)c2cccc3c(=O)c4ccccc4[nH]c23)cc1
TGI [1]: 53.1 µM | TGI [2]: 58.9 µM | TGI [3]: 29.5 µM | TGI [4]: 30.7 µM | TGI [5]: 55.9 µM | TGI [7]: 30.1 µM | TGI [8]: 41.2 µM | TGI [9]: 28.9 µM | TGI [10]: 42.1 µM

CCCC(=O)Nc1cc([N+](=O)[O-])c([N+](=O)[O-])cc1OC
TGI [1]: > 100 µM | TGI [3]: 29.3 µM | TGI [4]: 27.2 µM | TGI [5]: 34.2 µM | TGI [6]: 68.4 µM | TGI [7]: 30.2 µM | TGI [8]: 30.3 µM | TGI [9]: 21.5 µM | TGI [10]: 31 µM

COC(=O)c1cc2c3ccccc3n3c(=O)c4cc5cc(OC)c(N(S(=O)(=O)c6ccc(C)cc6)S(=O)(=O)c6ccc(C)cc6)cc5nc4c(n1)c23
GI50 [1]: 3.23 µM | TGI [1]: 14.5 µM | GI50 [2]: 4.42 µM | TGI [2]: 21.3 µM | GI50 [3]: > 100 µM | TGI [3]: > 100 µM | GI50 [4]: > 100 µM | TGI [4]: > 100 µM | GI50 [5]: 67.9 µM | TGI [5]: > 100 µM | GI50 [7]: > 100 µM | TGI [7]: > 100 µM | GI50 [8]: 3.99 µM | TGI [8]: 20.4 µM | GI50 [9]: 41.4 µM | TGI [9]: > 100 µM | GI50 [10]: 8.92 µM | TGI [10]: 23.6 µM

O=C1Nc2ccccc2/C1=C/c1cn(C(=O)c2c(Cl)cccc2Cl)c2ccccc12
GI50 [1]: 3.28 µM | TGI [1]: 12.7 µM | GI50 [2]: 1.54 µM | TGI [2]: 6.33 µM | GI50 [3]: 3.92 µM | TGI [3]: 14.9 µM | GI50 [4]: 1.76 µM | TGI [4]: 3.95 µM | GI50 [5]: 4.12 µM | TGI [5]: 37.4 µM | GI50 [6]: 3.38 µM | TGI [6]: 23.6 µM | GI50 [7]: 7.52 µM | TGI [7]: 20.4 µM | GI50 [9]: 2.25 µM | TGI [9]: 8.13 µM | GI50 [10]: 10.4 µM | TGI [10]: 56 µM

COc1ccc(Cn2cnc3cc(C(=O)Nc4cccc5ccccc45)ccc32)c(OC)c1
GI50 [1]: 0.045 µM | TGI [1]: > 100 µM | GI50 [2]: 0.153 µM | TGI [2]: > 100 µM | GI50 [3]: 0.0345 µM | TGI [3]: 5.18 µM | GI50 [4]: 0.0391 µM | TGI [4]: 8.06 µM | GI50 [5]: 0.0603 µM | TGI [5]: > 100 µM | GI50 [6]: 0.0368 µM | TGI [6]: 12.5 µM | GI50 [7]: 0.0502 µM | TGI [7]: 6.71 µM | GI50 [9]: 0.0228 µM | TGI [9]: > 100 µM | GI50 [10]: 1.17 µM | TGI [10]: > 100 µM
